Test results taken from patent publication US7332177B1, “Method and formulation for treating resistance to antihypertensives and related conditions” (Neurim Pharmaceuticals (1991) Ltd., priority 2000, dated 2008).

Experiments:
[1] = Experiment 1: morning blood pressure after 3 weeks of controlled-release melatonin in elderly insomnia patients; assay type: in vivo, human; settings: hypertensive elderly subjects; administration in the evening
Description: All patients, who had been insomniacs, were diagnosed according to DSM IV. They consisted of 86 men and 96 women, age 72±9 years. […] During the last week of the treatment period, BP was assessed at the morning and comparisons were made between placebo or melatonin treatments, and baseline.

[2] = 2 mg/os daily at 18:00 h for 2 months; adult men; cited from earlier work
rabbit aorta = settings: high concentrations 10-1000 μM; in vitro; cited from earlier work

COc1ccc2[nH]cc(CCNC(C)=O)c2c1 [melatonin]
daytime systolic and diastolic blood pressure [1]: decreased
mean serum melatonin levels [2]: marked elevation
Vasorelaxing action (rabbit aorta): observed
